{"source": "patent US8507674B2", "about": "“Quorum sensing inhibitor” (The University of Tokyo, priority 2007, dated 2013)", "key": {"Burkholderia glumae [1]": {"test_system": "Burkholderia glumae", "experiment": "Test Example 2: number of microorganisms in culture solution (colony count)", "format": "cell-based", "conditions": "final concentration 100 μM, after 36 hours of cultivation, FIG. 1", "method": "Burkholderia glumae was inoculated into an LB culture medium, and cultured at 37° C. overnight. The thus-obtained culture solution was subjected to bacterial collection using a centrifuge, washed with an LB culture medium twice using a fresh LB culture medium each time. To the bacterial cell a fresh LB culture medium was added to prepare a culture suspension of about 3.0×10^5 cfu/mL. Thereafter, each of Compound (1), Compound (2), Compound (3), Compound (4), Compound (5), Compound (8) and Compound (9) produced in Production Examples 1-5 were added to the culture suspension in such a manner that their final concentration became 100 μM, followed by shake culturing for 36 hours. The number of microorganisms in the culture solution 24 hours and 36 hours after the initiation of the culturing were obtained by the following procedure. Specifically, a portion of the culture solution was removed and diluted 1,000-fold, and then seeded to an LB culture medium agar plate. The number of colonies were counted to obtain the number of microorganisms.\nThe same experiments were conducted, as comparative tests, using Comparative Compounds (1)-(3), which were produced in Reference Examples 1-3 and the below-explained compound (Comparative Compound (4)), which is disclosed in Patent Document 1, thereby obtaining the number of microorganisms."}, "[2]": {"test_system": "(gfp expression PAO1-strain)", "experiment": "Test Example 7: biofilm formation inhibition in flow cell system", "format": "cell-based, Burkholderia aeruginosa", "conditions": "test liquid at 200 μL per minute, observed up to 84 hours by confocal microscope, FIG. 5", "method": "Using the flow cell system shown in FIG. 4, the […] aeruginosa biofilm formation inhibition effect of Compound (2), which was produced using Production Example 2, was evaluated.\nA culture medium bottle (1), peristaltic pump (2), glass cell (4) and waste fluid bottle (5) are connected via a silicon tube (6) so that a culture medium (9) is supplied to the glass cell (4) from the culture medium bottle (1) using the peristaltic pump (2). The system includes an air removal section (3) between the peristaltic pump (2) and a turncock (7a) for removing entrained air. All components in the flow cell system were sterilized using gamma rays or an autoclave.\nAs described later, the inhibitory effect against biofilm formation of each of the compounds can be examined in the following manner. Bacteria are cultured in a glass cell (4) to grow a biofilm on the inner wall of the cell, and a test liquid containing one of the compounds is applied to the biofilm. Then the state of the biofilm is observed to evaluate the inhibitory effect against biofilm formation of the compound using a spectral confocal and multiphoton microscope (Leica TCS SP2: produced by Leica). […]"}, "[3]": {"test_system": "Porphyromonas gingivalis 381-strain", "experiment": "Test Example 8: biofilm formation inhibition on hydroxyapatite disks in flow cell system", "format": "cell-based", "method": "Using the flow cell system shown in FIG. 4, the Porphyromonas gingivalis biofilm formation inhibition effect of Compound (2), which was produced in Production Example 2, was evaluated.\nBacteria: Periodontitis pathogenic bacteria Porphyromonas gingivalis 381-strain (clinical strain) were used.\nCulture Medium: A GAM culture medium containing […] and 1 μg/L menadione was used.\nBacterial Suspension The 381-strain was inoculated into the GAM culture medium, and cultivated until the stationary phase (OD550=1.8). Then the culture medium was diluted 20-fold by the GAM culture medium described above.\nTest liquid: The test liquid was prepared by dissolving Compound (2) into DMSO to obtain 100 μM of DMSO solution of Compound (2). […]\nAfter the cultivation, the HA disks were dipped in 300 μL of sterile distilled water, and treated by supersonic waves for 30 minutes at 4° C. […] Then, the turbidity of 10 μL of the suspension liquid was measured with an absorptiometer (C07500 calorimeter, produced by Funakoshi) (measurement wavelength=550 nm).\nA mean OD was found based on the resulting OD values, excluding the minimum and maximum values. Likewise, the turbidity of the control test liquid was obtained and determined as a control OD value, and then the control mean OD value was found in the same manner. […]"}, "Burkholderia glumae [4]": {"test_system": "Burkholderia glumae", "experiment": "Test Example 9: amount of toxoflavin produced in culture solution, with comparative compound", "format": "cell-based", "conditions": "0, 20, 40, 60, 80 or 100 μM, shake culturing 20 hours, FIG. 6", "method": "Burkholderia glumae was inoculated into an LB culture medium (produced by BD (Difco LB Broth: containing tryptone (10.0 g), yeast extract (5.0 g), and sodium chloride (10.0 g)), and cultured at 37° C. overnight. The thus-obtained culture solution was subjected to bacterial collection using a centrifuge, and washed with an LB culture medium twice using a fresh LB culture medium each time. To the bacterial cell a fresh LB culture medium was added, and then Compound (1) produced in Production Example 1 was added thereto in such a manner that its final concentration became a predetermined value (i.e., 0, 20, 40, 60, 80 or 100 μM), followed by shake culturing for 20 hours. The amount of toxoflavin produced by the bacterial cell in the culture solution was obtained by the following procedure.\nEach culture solution was filtered by a 0.22-μm membrane filter, and 1 mL of the filtrate was isolated. One mL of chloroform was added to the filtrate, followed by extraction. The thus-obtained chloroform layer was concentrated under reduced pressure, and an 80% (V/V) an aqueous methanol solution was added to and dissolved in the residue. The absorbance (at 260 nm) of the solution was measured, and the toxin doses were calculated from the calibration curve, which was obtained using chemically synthesized standard toxin. […]"}}}
{"smiles": "CCCCc1cc(=O)n2cccc(O)c2n1", "note": "[Compound (9), 9-hydroxy-2-n-butyl-4H-pyrid[1,2-a]pyrimidin-4-one]", "values": [{"measurement": "control activity against Burkholderia glumae (number of microorganisms)", "setting": "Burkholderia glumae [1]", "result": "can kill almost all Burkholderia glumae"}]}
{"smiles": "CCc1cc(=O)n2cccc(O)c2n1", "note": "[Compound (8), 9-hydroxy-2-ethyl-4H-pyrid[1,2-a]pyrimidin-4-one]", "values": [{"measurement": "control activity against Burkholderia glumae (number of microorganisms)", "setting": "Burkholderia glumae [1]", "result": "can kill almost all Burkholderia glumae"}]}
{"smiles": "CCCCCc1cc(=O)n2cccc(O)c2n1", "note": "[Compound (2), 9-hydroxy-2-n-pentyl-4H-pyrid[1,2-a]pyrimidin-4-one]", "values": [{"measurement": "biofilm formation on inner wall of glass cell", "setting": "[2]", "result": "biofilm formation was not observed"}, {"measurement": "Mean OD Value", "setting": "[3]; 100 μM, 14 days circulation, turbidity of biofilm suspension at 550 nm", "result": 0.041}, {"measurement": "inhibition at 100 µM", "setting": "[3]; Porphyromonas gingivalis, 381STRAIN, 336 h, read-out: Inhibition Rate (%) (biofilm formation inhibition rate)", "result": 56.4, "unit": "%"}]}
{"smiles": "CCCCCCCCCC(=O)CC(=O)Nc1ccccc1O", "note": "[Comparative Compound (5), reference compound]", "values": [{"measurement": "toxin doses produced by bacteria (toxoflavin)", "setting": "Burkholderia glumae [4]", "result": "almost no change"}]}
